For this data set the following is noted: from C=CCCC(=O)Nc1cc(NC(=O)OC)ccc1-c1nnc(Cl)cc1C(CC=C)NC(=O)OC(C)(C)C; rcm bond; 12-membered ring; Grubbs II (0.3 eq); DCM; 6.6 mM; 40.0 °C; 1.0 h.

`COC(=O)Nc1ccc2c(c1)NC(=O)CCC=CCC(NC(=O)OC(C)(C)C)c1cc(Cl)nnc1-2` (stereo not shown) gave a ring closure, isolated yield of 56%.

The values are drawn from patent US10487086.
